Among the data in BindingDB's records for doi:10.7270/Q2TX3CTT (Broad Institute, 2010) are EC50 values, retold here.

Bounds are passed on as bounds.

Glycogen synthase kinase-3 beta, sequence (P49841 whole entry): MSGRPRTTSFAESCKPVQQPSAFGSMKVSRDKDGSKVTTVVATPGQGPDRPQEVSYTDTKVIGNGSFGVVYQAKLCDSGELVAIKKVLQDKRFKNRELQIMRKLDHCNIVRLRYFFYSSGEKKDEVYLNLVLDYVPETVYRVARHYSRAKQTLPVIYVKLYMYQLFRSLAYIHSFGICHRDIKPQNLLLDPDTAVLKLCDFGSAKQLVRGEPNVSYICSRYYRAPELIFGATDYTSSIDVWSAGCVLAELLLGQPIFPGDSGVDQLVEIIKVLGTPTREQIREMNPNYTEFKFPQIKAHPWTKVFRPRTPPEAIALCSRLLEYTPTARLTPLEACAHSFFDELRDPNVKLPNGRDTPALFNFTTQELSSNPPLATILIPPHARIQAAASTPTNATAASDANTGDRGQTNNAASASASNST

The assay concerns the target Glycogen synthase kinase-3 beta (Homo sapiens, UniProt P49841). Description: GSK3beta kinase inhibitor potency, dose response, biochemical, luminescence, cell-free homogeneous, retest (AID 434954).
As a reminder, the EC50 is the concentration at which the effect is half-maximal. `Cc1c(NC(=O)CSc2nnc3sc4ccccc4n23)c(=O)n(-c2ccccc2)n1C` [MLS000060665]: the EC50 was above 300 µM.

Compound `COc1ccc(-c2nc(-c3ccccc3)nc(Cl)c2C#N)cc1` [4-chloranyl-6-(4-methoxyphenyl)-2-phenyl-pyrimidine-5-carbonitrile] showed an EC50 above 300 µM.

The compound `CCc1ccc(CNC(=O)C2CCC(=O)N(CCc3ccc(Cl)cc3)C2)nc1` (centres undefined) [1-[2-(4-chlorophenyl)ethyl]-N-[(5-ethyl-2-pyridinyl)methyl]-6-oxo-3-piperidinecarboxamide] had a concentration for a half-maximal effect (EC50) above 300 µM.

As for `CCOC(=O)CC(=O)CSc1ccc2nnc(-c3ccc(C)cc3)n2n1` [3-keto-4-[[3-(p-tolyl)-[1,2,4]triazolo[4,3-b]pyridazin-6-yl]thio]butyric acid ethyl ester], the EC50 was 14.3 µM.

For `COc1ccc2nc(NC(=O)CSc3nnc(N)[nH]3)sc2c1` [MLS001138435], the EC50 was 3.11 µM.

In turn, `CCN1CCN(Cc2ccc(NC(=O)c3ccc(C)c(/C=C/c4cnc(Nc5cc(N6CCNCC6)nc(C)n5)cn4)c3)cc2C(F)(F)F)CC1` [SMR000718284] came in with an EC50 above 300 µM.

With `O=C(COc1ccccc1Cl)Nc1ccc2c(c1)OCCO2` [2-(2-chloranylphenoxy)-N-(2,3-dihydro-1,4-benzodioxin-6-yl)ethanamide], the EC50 is above 300 µM.

The compound `Cc1cccc(-c2nnc(SCc3ccccc3)o2)c1` [MLS000067803] returned an EC50 above 300 µM.

Regarding `CN1CCc2c(sc3c2c(=O)n(-c2ccccc2)c2nnc(SCc4ccc(Cl)cc4)n32)C1` [SMR000045323], the EC50 is above 300 µM.

`COCCn1c(SCC(=O)NC(=O)NCc2ccccc2)nc2ccccc21` [MLS000053169] displayed an EC50 above 300 µM.

`COc1cccc(C(=O)C(C#N)=C(SC)SC)c1` [MLS000859112] displayed an EC50 above 300 µM.

The compound `CC(C(=O)Nc1nc2ccccc2s1)n1cc([N+](=O)[O-])cn1` (centres undefined) [SMR000307349] came in with an EC50 above 300 µM.

The compound `O=C(CSc1ccc(F)cc1)Nc1ccc(N2CCOCC2)cc1` [2-(4-fluorophenyl)sulfanyl-N-(4-morpholin-4-ylphenyl)ethanamide] yielded an EC50 above 300 µM.

On to `Cc1c(C(=O)O)cccc1-n1c(C)cc(CN=Nc2ccc([N+](=O)[O-])cn2)c1C`, for which it took 21.3 µM to reach a half-maximal effect (EC50).

In turn, `c1c2c(cc3sc(N4CCOCC4)nc13)OCCO2` [2-(4-morpholinyl)-6,7-dihydro-[1,4]dioxino[2,3-f][1,3]benzothiazole] showed an EC50 above 300 µM.

In turn, `CC1CCCN(S(=O)(=O)c2ccc(Br)s2)C1` (centres undefined) [SMR000021898] showed an EC50 above 300 µM.

`Cn1c(SCC(=O)Nc2ccc(Br)cn2)nnc1C1CC1` [N-(5-bromopyridin-2-yl)-2-[(5-cyclopropyl-4-methyl-1,2,4-triazol-3-yl)sulfanyl]acetamide] registered an EC50 of 20.7 µM.

In turn, `O=C(CSc1nnc(-c2cccnc2)n1-c1ccccc1)Nc1ccc2c(c1)OCO2` [MLS000050858] gave an EC50 above 300 µM.

For the compound `O=C(O)COc1ccc2occ(C(=O)c3ccccc3)c2c1`, a half-maximal effect (EC50) was put at 4.3 µM.

In turn, `Cc1cc(NC(=O)/C=C/c2cccc(F)c2)n(-c2nc3ccccc3[nH]2)n1` [(E)-N-[2-(1H-benzimidazol-2-yl)-5-methylpyrazol-3-yl]-3-(3-fluorophenyl)prop-2-enamide] had an EC50 above 300 µM.

Consider `CCCCOC(=O)C1C(C)=Nc2ncnn2C1c1cccc(OC)c1OC` (centres undefined) [butyl 7-(2,3-dimethoxyphenyl)-5-methyl-4,7-dihydro[1,2,4]triazolo[1,5-a]pyrimidine-6-carboxylate], for which the midpoint of the response, the EC50, lay at 4.25 µM.

The compound `CCCCc1cc(=O)oc2cc(C)cc(OCc3nn[nH]n3)c12` [MLS000041678] showed an EC50 above 300 µM.

Regarding `Cn1c(=O)[nH]c(=O)c2c1nc1n2CCCS1`, the EC50 was above 300 µM.

In turn, `O=C(CCS(=O)(=O)c1ccccc1)Nc1cccc2c1C(=O)NC2=O` [3-(benzenesulfonyl)-N-(1,3-dioxoisoindol-4-yl)propanamide] had a concentration giving a half-maximal response (EC50) of 25.2 µM.

For `c1ccc2c(c1)oc1c(NCCCn3ccnc3)ncnc12`, the EC50 is above 300 µM.

Turning to `COc1ccccc1/C=C1\C(=O)Nc2ccccc21` [SMR000523491], the EC50 is above 300 µM.

Regarding `CCCCCCN1C(=O)NC(=O)C(=CNCCCn2ccnc2)C1=O` [(5E)-1-hexyl-5-[[3-(1-imidazolyl)propylamino]methylidene]-1,3-diazinane-2,4,6-trione], the EC50 amounted to 14.3 µM.

Take `O=C(O)c1cc(-c2ccc(CN=Nc3ccc(Cl)cc3)o2)ccc1Cl` [2-chloro-5-{5-[2-(4-chlorophenyl)carbonohydrazonoyl]-2-furyl}benzoic acid]: the EC50 was above 300 µM.

Consider `COc1cc(CNC=C2C(=O)NC(=O)N(C(C)(C)C)C2=O)cc(OC)c1` [(5Z)-1-tert-butyl-5-[[(3,5-dimethoxyphenyl)methylamino]methylidene]-1,3-diazinane-2,4,6-trione], for which the EC50 is above 300 µM.

`COC(=O)C(CC(C)C)NC(=O)CSc1nc(-c2ccccc2)c(C#N)c(=O)[nH]1` (centres undefined) gave an EC50 above 300 µM.

On to `O=C(Nc1ccccc1)Nc1ncc([N+](=O)[O-])s1` [MLS001018461], for which it took 27 µM to reach a half-maximal effect (EC50).

Regarding `COc1cccc2cc(C(=O)Oc3ccccc3)c(=O)oc12` [MLS000999696], the EC50 is above 300 µM.

`O=c1c(-c2ccc(O)cc2)coc2cc(O)cc(O)c12` [Prunetol] had an EC50 above 300 µM.

Turning to `COc1ccc2occ(C(=O)c3ccc(N=C(C)N(C)C)cc3)c2c1` [SMR000104711], a half-maximal response (EC50) required 21.6 µM.

The compound `CCCCOc1ccc(C=NNC(=O)c2nnn(-c3nonc3N)c2CN2CCCCCC2)cc1` [1-(4-amino-1,2,5-oxadiazol-3-yl)-5-(1-azepanylmethyl)-N-[(4-butoxyphenyl)methylideneamino]-4-triazolecarboxamide] yielded an EC50 of 55.3 µM.

The compound `CSc1nc(NCCCN(C)C)c2c3c(sc2n1)CN(C)CC3` [SMR000543143] yielded an EC50 above 300 µM.

`COc1ccc(N2CCN(c3cc(C)nc4ccc(OC)cc34)CC2)cc1` [MLS001174346] had an EC50 above 300 µM.

In turn, `CCCN(CCC)Cc1c(C(=O)NN=CCCc2ccccc2)nnn1-c1nonc1N` [1-(4-amino-1,2,5-oxadiazol-3-yl)-5-[(dipropylamino)methyl]-N-(3-phenylpropylideneamino)-4-triazolecarboxamide] gave an EC50 of 7.47 µM.

The compound `O=c1c2c3c(sc2n2c(S)nnc2n1-c1ccccc1)CCC3` [MLS000779668] came in with an EC50 of 34 µM.

`Nc1ccc(O)c2c(=O)cc(-c3ccccc3Cl)oc12` [MLS000518334] registered an EC50 of 21.5 µM.

The compound `N#Cc1c2n(c3c(-c4ccccc4)ncnc13)CCC2` [MLS000104266] came in with an EC50 of 40 µM.

As for `CSc1nc2c(c(=O)[nH]1)C(c1ccccc1)C1C(=O)CC(C)(C)CC1=N2` (centres undefined) [8,8-dimethyl-2-(methylthio)-5-phenyl-5,8,9,10-tetrahydropyrimido[4,5-b]quinoline-4,6(3H,7H)-dione], the EC50 is above 300 µM.

`CC(=O)Oc1cccc(N2C(=O)c3ccc(C(=O)Nc4cccnc4)cc3C2=O)c1` [SMR000306801]: the EC50 is above 300 µM.

For `Cn1nnnc1Sc1c(Cl)cccc1[N+](=O)[O-]` [5-({2-chloro-6-nitrophenyl}sulfanyl)-1-methyl-1H-tetraazole], the EC50 is above 300 µM.

Compound `Cc1ccc(C)c(Nc2nc(-c3ccncc3)nc3ccccc23)c1` came in with an EC50 above 300 µM.

Turning to `NC(=S)c1cn(C2OC(CO)C(O)C2O)c2ncnc(N)c12` (centres undefined) [4-amino-7-[3,4-dihydroxy-5-(hydroxymethyl)oxolan-2-yl]pyrrolo[2,3-d]pyrimidine-5-carbothioamide], the EC50 is 12 µM.

`CC1(C)CC(=O)C=C(Nc2ccc(F)cc2)C1` [MLS000070279] gave an EC50 above 300 µM.

`O=C(NCC(c1ccco1)N1CCc2ccccc2C1)c1ccccc1Cl` (centres undefined) [2-chloro-N-[2-(3,4-dihydro-1H-isoquinolin-2-yl)-2-(2-furanyl)ethyl]benzamide] yielded an EC50 above 300 µM.

Compound `CCc1cc(=O)oc2cc(OC(C)=O)cc(OC(C)=O)c12` [(5-acetyloxy-4-ethyl-2-oxidanylidene-chromen-7-yl) ethanoate] had an EC50 of 28.5 µM.

The compound `COc1ccc(C(=O)ON=C(N)c2ccccn2)cc1` [SMR000608101] gave a 50% effective concentration (EC50) of 13.2 µM.

Consider `N#Cc1c(-c2ccc(F)cc2)nc(-c2ccccc2)[nH]c1=O`, for which the EC50 was above 300 µM.

`O=C(Nc1ccccc1)C(=O)Nc1ccccn1` [N-Phenyl-N'-pyridin-2-yl-oxalamide] yielded an EC50 above 300 µM.

`Cc1[nH]nc2c1C(c1cccs1)C1C(=O)CCCC1=N2` (centres undefined) [MLS001003570]: the EC50 is 10.6 µM.

`CCC(=O)Nc1sc2c(c1C(N)=O)CCN(C(C)=O)C2` [6-acetyl-2-(1-oxopropylamino)-5,7-dihydro-4H-thieno[2,3-c]pyridine-3-carboxamide] showed an EC50 of 13.8 µM.

The compound `COc1cccc(NC(=O)CN(C)C(=O)c2cc(-c3ccc(F)cc3)nc3ccccc23)c1` displayed an EC50 above 300 µM.

The compound `O=C1C[C@@H](c2ccc(O)cc2)Oc2cc(O)ccc21` [7-Hydroxy-2-(4'-hydroxyphenyl)chroman-4-one] came in with an EC50 above 300 µM.

As to `COCCNc1nc(N)c([N+](=O)[O-])c(NCC2CCCO2)n1` (centres undefined) [MLS000588049], the EC50 is 13 µM.

With `O=C(O)c1cccc(Nc2ccnc(Nc3cccc(C(=O)O)c3)n2)c1` [MLS001213333], the EC50 was above 300 µM.

In turn, `CN(Cc1c(C(=O)NN=Cc2ccccc2F)nnn1-c1nonc1N)c1ccccc1` [MLS001141029] yielded an EC50 above 300 µM.

With `Cc1ccc2c(c1)C1CN(C)CCC1N2C(=S)Nc1ccc(Cl)cc1Cl` (centres undefined) [SMR000385491], the EC50 was above 300 µM.

`CCOC(=O)Cc1csc(NC(=O)c2c(O)c3ccccc3n(CCC(C)C)c2=O)n1` [SMR000284490]: the EC50 is above 300 µM.

`O=C(c1cc(COc2ccc(F)cc2F)on1)N1CCCC(c2ccccc2)C1` (centres undefined) [[5-[[2,4-bis(fluoranyl)phenoxy]methyl]-1,2-oxazol-3-yl]-(3-phenylpiperidin-1-yl)methanone] registered an EC50 above 300 µM.

`O=c1cc(-c2ccccc2)c2c(O)cc(O)cc2o1` had an EC50 of 7.82 µM.

As to `CC(C)Sc1nc2c(c(=O)[nH]1)C(c1cccs1)C1C(=O)CC(C)(C)CC1=N2` (centres undefined) [8,8-dimethyl-2-propan-2-ylsulfanyl-5-thiophen-2-yl-5,7,9,10-tetrahydro-1H-pyrimido[4,5-b]quinoline-4,6-dione], the EC50 was above 300 µM.
